Reference: ChEMBL document CHEMBL1201862, “PubChem BioAssay data set” (2004)
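Five compound concentrations were applied to cells in 96-well plates for 48 hours; endpoints were derived by simple linear interpolation of the resulting dose-response curve. GI50 is the concentration that inhibits growth by half.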 Activity calls are given as the source filed them. Cut-off read from the data, not from the text of the source: active = GI50 up to about 1.1 µM and inactive = higher.

Assays:
Assay in all cases: NCI-60 cell line screen, 48 h
EKVX = tested on: EKVX
HCC 2998 = tested on: HCC 2998
HCT-15 = tested on: HCT-15
HOP-62 = tested on: HOP-62
HOP-92 = tested on: HOP-92
KM12 = tested on: KM12
MOLT-4 = tested on: MOLT-4
NCI-H226 = tested on: NCI-H226
NCI-H460 = tested on: NCI-H460
RXF 393 = tested on: RXF 393
SF-268 = tested on: SF-268
SF-295 = tested on: SF-295
SF-539 = tested on: SF-539
SN12C = tested on: SN12C
SNB-75 = tested on: SNB-75
SW-620 = tested on: SW-620
TK-10 = tested on: TK-10
U-251 = tested on: U-251

| SMILES | GI50 (EKVX) | GI50 (HCC 2998) | GI50 (HCT-15) [µM] | GI50 (HOP-62) | GI50 (HOP-92) | GI50 (KM12) | GI50 (MOLT-4) | GI50 (NCI-H226) | GI50 (NCI-H460) | GI50 (RXF 393) | GI50 (SF-268) | GI50 (SF-295) | GI50 (SF-539) | GI50 (SN12C) | GI50 (SNB-75) | GI50 (SW-620) | GI50 (TK-10) | GI50 (U-251) |
| --- | --- | --- | --- | --- | --- | --- | --- | --- | --- | --- | --- | --- | --- | --- | --- | --- | --- | --- |
| O=C1C(=O)N(c2ccc(Cl)cc2)C(=O)C(=O)C1c1nc2ccccc2s1 | > 100 µM (inactive) | > 100 µM (inactive) | > 100 | 42.7 µM (inactive) | > 100 µM (inactive) | > 100 µM (inactive) | 21.9 µM (inactive) | > 100 µM (inactive) | > 100 µM (inactive) | > 100 µM (inactive) | > 100 µM (inactive) | > 100 µM (inactive) | 74.3 µM (inactive) | > 100 µM (inactive) | > 100 µM (inactive) | > 100 µM (inactive) | > 100 µM (inactive) | > 100 µM (inactive) |
| N#CC1CC(c2ccccc2)Nc2cc(Cl)ccc2N1 (configuration not stated) | > 79.6 µM (inactive) | > 100 µM (inactive) | 13.8 | 55.7 µM (inactive) | 26.7 µM (inactive) | 34.8 µM (inactive) | 10.9 µM (inactive) | > 100 µM (inactive) | 35.4 µM (inactive) | 38.8 µM (inactive) | 45.2 µM (inactive) | 40.9 µM (inactive) | 38.3 µM (inactive) | 63.1 µM (inactive) | 36.5 µM (inactive) | 4.5 µM (inactive) | > 100 µM (inactive) | 30.7 µM (inactive) |
| COc1cc(-c2c(C)c(C)nc(OC)c2C#N)cc(OC)c1OC | > 100 µM (inactive) | > 100 µM (inactive) | > 100 | > 100 µM (inactive) | 21.3 µM (inactive) | > 100 µM (inactive) | 39.9 µM (inactive) | 24.9 µM (inactive) | > 100 µM (inactive) | 44.2 µM (inactive) | > 100 µM (inactive) | 53.6 µM (inactive) | > 100 µM (inactive) | > 100 µM (inactive) | 44.2 µM (inactive) | > 100 µM (inactive) | > 100 µM (inactive) | > 100 µM (inactive) |
| Cc1ccc(-c2c(C#N)c(-c3ccccc3)c(C#N)c(=O)n2NS(=O)(=O)c2ccc(C)cc2)cc1 | 72.1 µM (inactive) | 19.9 µM (inactive) | 22.2 | 50.4 µM (inactive) | 20.8 µM (inactive) | 38.5 µM (inactive) | 12.9 µM (inactive) | 83.9 µM (inactive) | 15.7 µM (inactive) | 62.2 µM (inactive) | > 100 µM (inactive) | 24 µM (inactive) | 13.3 µM (inactive) | 61.2 µM (inactive) | > 100 µM (inactive) | 14.8 µM (inactive) | 40.7 µM (inactive) | 45.2 µM (inactive) |
| CC(C)(C)C(=O)C1CC(=O)c2ccccc2C1=O (configuration not stated) | 32.4 µM (inactive) | 23.4 µM (inactive) |  | 25.2 µM (inactive) | 24.8 µM (inactive) | 31.8 µM (inactive) | 27.8 µM (inactive) | 35.2 µM (inactive) | 29.7 µM (inactive) | 22.2 µM (inactive) | 21.8 µM (inactive) | 36.2 µM (inactive) | 34.3 µM (inactive) | 28.2 µM (inactive) | 5.98 µM (inactive) | 32.4 µM (inactive) | 34.1 µM (inactive) | 34 µM (inactive) |
| CCOc1ccc(NC(=O)/C(CC(=O)c2c[n+]([O-])c3ccccc3[n+]2[O-])=N\OCCCc2ccccc2)cc1 | > 100 µM (inactive) | > 100 µM (inactive) | > 100 | > 100 µM (inactive) | 16.9 µM (inactive) | > 100 µM (inactive) | > 100 µM (inactive) | 44.9 µM (inactive) | > 100 µM (inactive) | > 100 µM (inactive) | > 100 µM (inactive) | > 100 µM (inactive) | > 100 µM (inactive) | > 100 µM (inactive) | > 100 µM (inactive) | > 100 µM (inactive) | > 100 µM (inactive) | > 100 µM (inactive) |
